Tests used:
[1] = tested on: hGLP1R^−/− mouse islets transduced with SNAP/FLAG-hGLP1R^WT versus ^A316T; islets from hGLP1R^+/+ versus ^A316T/A316T mice; experiment: Lysosomal inhibition assay, surface GLP-1R in mouse islets; type: cell-based; conditions: 400 nM, 2 hours; n = 3 and n = 4; Fig. 7E,F
Method: (§1) INS-1 832/3 Glp1r^−/− SNAP/FLAG-hGLP1R^WT or ^A316T cells on coverslips, mouse hGLP1R^−/− islets transduced with pAV-SNAP/FLAG-hGLP1R^WT or ^A316T adenoviruses, or hGLP1R^A316T/A316T and ^+/+ control islets were incubated for 2 hours ± 400 nM bafilomycin-A1 (Sigma-Aldrich), an established vacuolar H^+-ATPase and lysosomal trafficking inhibitor ([98]), in complete medium. Cells and transduced hGLP1R^−/− islets were then labeled with 1 μM SNAP-Surface 549, and hGLP1R^A316T/A316T versus ^+/+ islets were treated with exendin-9–TMR in complete medium at 37°C for 10 min. Cells were washed and fixed in 4% PFA, mounted in Prolong Diamond antifade reagent with DAPI, while islets were loaded onto glass-bottom MatTek dishes in PBS, and images were acquired by confocal microscopy with a Zeiss LSM-780 inverted confocal laser scanning microscope and a 63×/1.4 numerical aperture oil immersion objective from the Imperial College FILM Facility. Images were analyzed using Fiji.

[2] = tested on: INS-1 832/3 Glp1r^−/− SNAP/FLAG-hGLP1R^A316T cells; experiment: Lysosomal inhibition assay, surface GLP-1R in INS-1 832/3 cells; type: cell-based, rat; conditions: 400 nM, 2 hours; comparable to WT; n = 5; Fig. 7D
Method: as §1

[3] = tested on: human GLP-1R A316T versus WT; experiment: Insulin secretion assay in mouse islets; type: cell-based; conditions: HFHS-fed mouse islets; 11 mM glucose + 100 nM; fig. S6I
Method: Purified mouse islets used for insulin secretion assays were treated in 24-well nonadherent plates. Eight islets were used per replicate with three technical replicates per condition. For acute studies, islets were preincubated for 1 hour in KRBH buffer containing 0.1% (w/v) bovine serum albumin (BSA) (10775835001, Roche) and 3 mM glucose before incubation with 11 mM glucose ± 100 nM GLP-1RAs or the GLP-1R antagonist exendin-9 in KRBH buffer in a shaking 37°C water bath (80 rpm) for 1 hour. For overnight studies, preincubation was carried out in RPMI 1640 medium containing FBS, P/S, and 3 mM glucose, followed by treatment with medium supplemented with 11 mM glucose ± GLP-1RAs for 16 hours. Supernatants containing secreted insulin were collected, centrifuged at 1000 rpm for 1 min, and transferred to fresh tubes. For total insulin content, islets were lysed using acidic ethanol (75% ethanol, 1.5 mM HCl). Lysates were sonicated 3× 10 s each in a water bath and centrifuged at 10,000g for 10 min, and supernatants were collected. For human islets, the same experiment was performed with islets previously transduced with pAV-SNAP/FLAG-hGLP1R^WT or ^A316T adenoviruses (generated by VectorBuilder) at a multiplicity of infection of 1, 24 hours before the start of experiments. Insulin secretion assays with the human EndoC-βH3 cell line were performed following 3 weeks of treatment with 4-hydroxytamoxifen as above, followed by transduction with pAV-SNAP/FLAG-hGLP1R^WT or ^A316T adenoviruses, with insulin secretion assessed as previously described ([54]), with the following modifications: After preincubation with 0.5 mM glucose KRBH buffer, cells were stimulated with 15 mM glucose ± exendin-4 for 60 min. Total and secreted insulin samples from islets and cells were stored at −20°C until quantification using an Insulin Ultra-Sensitive HTRF kit (#62IN2PEG, Revvity) in a PHERAstar plate reader (BMG Labtech), according to the manufacturer’s instructions.

Compound	Surface GLP-1R A316T after lysosomal inhibition in islets [1]	Surface expression levels of GLP-1R A316T after lysosomal inhibition [2]	Basal insulin secretion of A316T islets on exposure to antagonist/inverse agonist [3]
CO/C1=C\C(C)=C\[C@@H](C)[C@@H](O)[C@@H](C)C/C(C)=C/C=C/[C@H](OC)[C@@H]([C@@H](C)[C@@H](O)[C@H](C)[C@@]2(O)C[C@@H](O)[C@H](C)[C@@H](C(C)C)O2)OC1=O [bafilomycin A1]	same effect	complete recovery of surface expression levels	–
exendin-9	–	–	significantly reduced

Source: article PMC13267291, “In vivo functional profiling and structural characterization of the human GLP1R A316T variant” (Science Advances, 2026)
